Measured values from patent US20220249441A1, “Homodimeric Tobramycin Adjuvant Repurposes Novobiocin as an Effective Antibacterial Agent Against Gram-Negative Bacteria” (priority 2019, published 2022).

Tested on: P. aeruginosa
Assay: Checkerboard assay (antibiotic + adjuvant combination MIC)
Type: cell-based, Pseudomonas aeruginosa
Details: for potentiation of novobiocin / MIC Alone: P. aeruginosa PAO1; for MIC Alone: β-lactam antibiotic alone
Method: Antimicrobial Susceptibility Assay. The in vitro antimicrobial activity of all compounds/antibiotics against a panel of bacteria was evaluated by microbroth dilution method in accordance with the Clinical and Laboratory Standards Institute (CLSI) guidelines (using ATCC strains as quality control strains) (54). Overnight grown bacterial cultures were diluted in saline to achieve a 0.5 McFarland turbidity, followed by 1:50 dilution in Mueller-Hinton broth (MHB) for inoculation to a final concentration of approximately 5×10^5 CFU/mL. […] The lowest concentration that prevented the visible growth of bacteria was defined as the MIC for each antimicrobial agent. The broth with or without bacterial cells was used as positive or negative control, respectively.
Checkerboard Assay. Combination studies with different antibiotics were performed in 96-well plates as previously described (19). Briefly, the antibiotic of interest was serially diluted in MHB along the abscissa while the adjuvant (tobramycin homodimer) was serially diluted in MHB along the ordinate. This creates a 10×7 matrices wherein each well consists of a combination of different antibiotic and adjuvant concentrations. Overnight grown bacterial cultures were diluted in saline to achieve a 0.5 McFarland turbidity, followed by 1:50 dilution in Mueller-Hinton broth (MHB) for inoculation to a final concentration of approximately 5×10^5 CFU/mL. […] MIC was recorded as wells with the lowest concentration of drugs with no bacterial growth. The fractional inhibitory concentration (FIC) for each antibiotic was calculated by dividing the MIC of the antibiotic in the presence of adjuvant by the MIC of the antibiotic alone. Similarly, the FIC of adjuvant was calculated by dividing the MIC of the adjuvant in the presence of antibiotic by the MIC of the adjuvant alone. FIC index is the sum of both FICs. FIC indices of ≤0.5 were deemed synergistic; >0.5-4, no interaction; and >4, antagonistic.

With `[N-]=[N+]=NCCCCO[C@@H]1[C@@H](O[C@H]2O[C@H](CO)[C@@H](O)[C@H](N)[C@H]2O)[C@H](N)C[C@H](N)[C@H]1O[C@H]1O[C@H](CN)[C@@H](O)C[C@H]1N` [Compound 5, 5-O-(4-Azidobutyl)-Tobramycin] the potentiation of novobiocin was “did not potentiate”.
`C[C@@H](O)[C@H]1C(=O)N2C(C(=O)O)=C(SCCN=CN)C[C@H]12` [Imipenem, reference compound] was tested, and the MIC Alone was 4 µg/mL, the MIC of IPM alone (PA 259-96918) was 64 µg/mL and the MIC of IPM alone (PA 260-97103) was 16 µg/mL. It also gave an MIC of IPM alone (PA 262-101856) of 32 µg/mL, an MIC of IPM alone (PA 264-104354) of 16 µg/mL and an MIC of IPM alone (PA 86052) of 32 µg/mL. For the same compound, the MIC of IPM alone (PA 88949) was 64 µg/mL, the MIC of IPM alone (PA 91433) was 8 µg/mL and the MIC of IPM alone (PA 100036) was 8 µg/mL. It also gave an MIC of IPM alone (PA 101243) of 8 µg/mL, an MIC of IPM alone (PA 101885) of 4 µg/mL and an MIC of IPM alone (PA 107092) of 64 µg/mL. The MIC of IPM alone (PA 108590) was 16 µg/mL, the MIC of IPM alone (PA 109084) was 16 µg/mL and the MIC of IPM alone (PA 114228) was 8 µg/mL. It also gave an MIC of IPM alone (PAO1) of 4 µg/mL, an MIC of IPM alone (PAO200 (efflux-deficient)) of 4 µg/mL and an MIC of IPM alone (PAO750 (efflux-deficient)) of 4 µg/mL.
For `CCN1CCN(C(=O)N[C@@H](C(=O)N[C@@H]2C(=O)N3[C@@H]2SC(C)(C)[C@@H]3C(=O)O)c2ccccc2)C(=O)C1=O` [Piperacillin, reference compound], the MIC Alone was 8 µg/mL.
With `CC(C)(C)OC(=O)NC[C@H]1O[C@H](O[C@H]2[C@H](OCCCCc3cn(CCCCO[C@@H]4[C@@H](O[C@H]5O[C@H](CO)[C@@H](O)[C@H](NC(=O)OC(C)(C)C)[C@H]5O)[C@H](NC(=O)OC(C)(C)C)C[C@H](NC(=O)OC(C)(C)C)[C@H]4O[C@H]4O[C@H](CNC(=O)OC(C)(C)C)[C@@H](O)C[C@H]4NC(=O)OC(C)(C)C)nn3)[C@@H](O[C@H]3O[C@H](CO)[C@@H](O)[C@H](NC(=O)OC(C)(C)C)[C@H]3O)[C@H](NC(=O)OC(C)(C)C)C[C@@H]2NC(=O)OC(C)(C)C)[C@H](NC(=O)OC(C)(C)C)C[C@@H]1O` [Compound 12a] the potentiation of novobiocin was “did not potentiate”.
With `C#CCCCCO[C@@H]1[C@@H](O[C@H]2O[C@H](CO)[C@@H](O)[C@H](N)[C@H]2O)[C@H](N)C[C@H](N)[C@H]1O[C@H]1O[C@H](CN)[C@@H](O)C[C@H]1N.O=C(O)C(F)(F)F.O=C(O)C(F)(F)F.O=C(O)C(F)(F)F.O=C(O)C(F)(F)F.O=C(O)C(F)(F)F` [Compound 4, 5-O-(Hexyne)-Tobramycin] the potentiation of novobiocin was “did not potentiate”.
